Reference: article PMC6651555, “Cathepsin L Inhibitors with Activity against the Liver Fluke Identified From a Focus Library of Quinoxaline 1,4-di-N-Oxide Derivatives” (Molecules, 2019)
“Also recorded” adds a separate entry of the source.

How the values were obtained:
[1] = target: T1, FhCL1 (Fasciola hepatica, UniProt Q7JNQ9); assay: FhCL1 inhibition screening, IC50 and slow-binding (fluorogenic substrate Z-VLK-AMC); format: biochemical; conditions: read-out: %Inh FhCL1, 10 µM compound, 20 min preincubation, relative to enzyme alone; SD less than 10%
T1 construct: made in house; host or cells: Hansenula polymorpha (yeast)
T1 sequence (Q7JNQ9 entry or part of it): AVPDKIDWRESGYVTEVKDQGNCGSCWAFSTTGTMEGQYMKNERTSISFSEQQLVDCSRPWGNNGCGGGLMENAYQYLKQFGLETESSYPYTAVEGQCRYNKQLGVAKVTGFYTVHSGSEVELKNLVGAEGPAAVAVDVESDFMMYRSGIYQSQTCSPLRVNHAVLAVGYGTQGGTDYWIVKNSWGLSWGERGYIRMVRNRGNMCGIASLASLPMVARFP
Description: (§1) Each compound was completely dissolved in dimethylsulfoxide (DMSO) to a concentration of 10 mM to prepare the stock solutions. To evaluate the inhibition of FhCL1 and FhCL3 by quinoxaline 1,4-di-N-oxide derivatives, nanomolar concentrations of each enzyme was incubated with compounds at 10 μM. Briefly, each enzyme and compound were preincubated 20 min in a 96-well plate in 0.1 M sodium phosphate buffer pH 6, 1 mM DTT, and 1 mM EDTA at room temperature. The reaction was initiated by adding 20 μM of substrate and enzyme activity was measured by the increase in aminomethyl coumarin (AMC) fluorescence as peptide substrates were hydrolyzed (Z-VLK-AMC for FhCL1 and Tos-GPR-AMC for FhCL3), at an excitation wavelength of 340 nm and emission wavelength of 440 nm using a spectrofluorometer (Varioskan Thermo, Waltham, MA, USA). Enzyme activity was expressed as RFU/s (relative fluorescence units of AMC released per second). Each compound was tested in triplicate. A control reaction without enzymes was performed to check for the occurrence of non-catalyzed reactions between substrates and inhibitors and a spectrum from 300 to 450 nm wavelength was done for each quinoxaline 1,4-di-N-oxide derivative to verify that none of them had optical activity in the measurement range. The percentage of enzyme inhibition was calculated as 100 − (vi/vo) × 100, where vi and vo correspond to the initial rate of AMC fluorescence increase (RFU/s) with and without inhibitor, respectively.
(§2) To calculate the IC50 values, compounds were incubated with each enzyme at seven different concentrations; 0.625, 1.25, 2.5, 5, 10, 20, and 40 μM. Then, the enzyme activity was measured in a 96-well plate as described before. We plotted initial rates (RFU/s) versus log10 of inhibitor concentrations and obtained the IC50 values by fitting the data to a sigmoid curve. We also carried out slow-binding assays to evaluate the time-dependence of the inhibition. Each compound was incubated at 10 μM with the enzyme for increasing lengths of time; 3 to 120 min and the percentage of inhibition at each time point was determined as described before. We calculated the inhibition percentage of the leader compounds at 10 μM for HsCL1. The enzyme was preincubated for 20 min with the compounds and the activity was measured in a 96-well plate in 400 mM sodium acetate, pH 5.5, with 4 mM EDTA, 8 mM DTT, and 20 μM of substrate Z-VLK-AMC. The percentage of enzyme inhibition was calculated as described for FhCL1 and FhCL3. We determined the IC50 value for C17 against HsCL by incubating the enzyme with four different concentrations of the compound 0, 10, 25, and 50 μM and measuring the activity as described before. We plotted initial rates (RFU/s) versus log10 of inhibitor concentration and obtained the IC50 value by fitting the data to a sigmoid curve.

[2] = system: FhCL3; assay: FhCL3 inhibition screening, IC50 and slow-binding (fluorogenic substrate Tos-GPR-AMC); format: biochemical, Fasciola hepatica; conditions: 10 µM compound, 20 min preincubation, relative to enzyme alone; SD less than 10%
Description: as §1, §2

[3] = system: F. hepatica NEJ; assay: In vitro culture of NEJ and treatment with inhibitors (motility score); format: cell-based, Fasciola hepatica; conditions: 50 μM compound, over 96 h
Description: F. hepatica metacercariae were acquired from Instituto Miguel C. Rubino (DILAVE, MGAP, Uruguay). NEJ were obtained by in vitro excystement as previously described with minor modifications. Briefly, metacercariae were incubated with 1% sodium hypochlorite for 5 min at room temperature to remove the outer cyst wall and then washed several times with PBS. Metacercariae activation was carried out in a medium prepared by mixing equal volumes of solution A (0.4% sodium taurocholate, 120 mM NaHCO3, 140 mM NaCl, pH 8.0) and solution B (50 mM HCl and 33 mM L-cysteine), and incubating at 39 °C until the NEJ begin to emerge (around 3–4 h). A 100 μm filter was used to retain the cyst wall. Collected NEJ were washed three times with RPMI-1640 supplemented with 200 U/mL Penicillin G sulfate, […] streptomycin sulfate, 500 ng/mL amphotericin B, 10 mM HEPES, counted and divided into groups of around 20 parasites that were transferred to 96 wells in tissue culture plates. Parasites were maintained at 37 °C, 5% CO2 in modified Basch’s medium. At day 1, each tested compound was added at a concentration of 50 μM in 0.5% DMSO. Also, 0.5% of DMSO was added to the control groups. Each condition was tested in duplicate. NEJ behavior was monitored under a light microscope (Olympus BX41, Hamburg, Germany), every day each well was recorded for a minute in order to assess parasite motility and registered using the following score: 3—normally active; 2—reduced activity (sporadic movement); 1—immotile (dead, adapted from). Control parasites were maintained in culture for seven days.

Compound | inhibition at 10 µM [1] [%] | %Inh FhCL3 [2] [%] | Effect on NEJ motility / fasciolicide activity in vitro [3]
Cc1c[n+]([O-])c2ccccc2[n+]1[O-] [Compound C1] | 1 | 8 | –
O=Cc1c[n+]([O-])c2ccccc2[n+]1[O-] [Compound C2] | 21 | 0 | –
N#Cc1c(N)[n+]([O-])c2ccccc2[n+]1[O-] [Compound C3] | 30 | 0 | –
COC(=O)N/N=C/c1ccc2c(c1)[n+]([O-])c(C#N)c(N)[n+]2[O-] [Compound C4] | 0 | 27 | –
C=CCNC(=S)N/N=C/c1ccc2c(c1)[n+]([O-])c(C#N)c(N)[n+]2[O-] [Compound C5] | 20 | 39 | –
CCCCNC(=O)N/N=C/c1ccc2c(c1)[n+]([O-])c(C#N)c(N)[n+]2[O-] [Compound C6] | 59 | 27 | did not have activity against the parasites
CCN(C/C=C/c1ccccc1)c1ccc2c(c1)[n+]([O-])c(C#N)c(N)[n+]2[O-] [Compound C8] | 24 | 45 | –
N#Cc1c(N)[n+]([O-])c2cc(Cl)c(Cl)cc2[n+]1[O-] [Compound C9] | 15 | 0 | –
COC(=O)N/N=C/c1ccc2c(c1)[n+]([O-])c(C)c(C)[n+]2[O-] [Compound C10] | 13 | 3 | –
Cc1c(C)[n+]([O-])c2cc(/C=N/NC(=O)NCCc3ccccc3)ccc2[n+]1[O-] [Compound C11] | 56 | 32 | did not have activity against the parasites
C=CCN1C(=O)CS/C1=N/N=C/c1ccc2c(c1)[n+]([O-])c(C)c(C)[n+]2[O-] [Compound C12] | 0 | 22 | –
C=CCn1c(-c2ccc(Cl)cc2)csc1=NN=Cc1ccc2c(c1)[n+]([O-])c(C)c(C)[n+]2[O-] [Compound C13] | 34 | 2 | –
CCOC(=O)c1c(C)[n+]([O-])c2ccccc2[n+]1[O-] [Compound C14] | 28 | 5 | –
C=CCNC(=S)N/N=C/c1ccc2c(c1)[n+]([O-])c(C(=O)OCC)c(C)[n+]2[O-] [Compound C15] | 38 | 58 | did not have activity against the parasites
Cc1c(Sc2ccccc2)[n+]([O-])c2cc(Cl)c(Cl)cc2[n+]1[O-] [Compound C16] | 35 | 22 | –
CCOC(=O)c1c(-c2ccccc2)[n+]([O-])c2cc(Cl)c(Cl)cc2[n+]1[O-] [Compound C19] | 54 | 35 | progressive decrease of parasite motility starting between 24 and 96 h of culture; also recorded: strong fasciolicide activity in vitro
C=CCNC(=S)N/N=C/c1ccc2c(c1)[n+]([O-])c(C(=O)Nc1ccccc1)c(C)[n+]2[O-] [Compound C20] | 72 | 0 | –
CCN(C/C=C/c1ccccc1)c1ccc2c(c1)[n+]([O-])c(C(=O)Nc1ccccc1)c(C)[n+]2[O-] [Compound C21] | 47 | 54 | progressive decrease of parasite motility starting between 24 and 96 h of culture
Cc1c(C(=O)Nc2ccccc2)[n+]([O-])c2cc(CN3CCN(C/C=C/c4ccccc4)CC3)ccc2[n+]1[O-] [Compound C22] | 23 | 49 | –
Cc1c(C(=O)NCc2ccccc2)[n+]([O-])c2ccccc2[n+]1[O-] [Compound C25] | 47 | 40 | –
Cc1c(C(=O)c2ccccc2)[n+]([O-])c2cc(F)c(F)cc2[n+]1[O-] [Compound C26] | 41 | 17 | –
O=C(c1ccccc1)c1c(C(F)(F)F)[n+]([O-])c2ccccc2[n+]1[O-] [Compound C27] | 38 | 22 | –
O=C(c1ccccc1)c1c(C(F)(F)F)[n+]([O-])c2cc(F)c(F)cc2[n+]1[O-] [Compound C28] | 0 | 38 | –
